Laboratory results taken from ChEMBL document CHEMBL6074667, “Discovery and Optimization of First-in-Class Molecular Glue Degraders of the WIZ Transcription Factor for Fetal Hemoglobin Induction to Treat Sickle Cell Disease” (J Med Chem, 2024).
In brackets after ≈: the same amount, converted by molar mass. Activity calls are given as the source filed them. The calls are words filed in the database; no cut-off is given here.

Legend:
[1] = Apparent permeability across apical to basolateral side in low efflux MDCK cells assessed as drug recovery at 10 uM incubated for 2 hrs by LC-MS analysis; type: ADME, cell-based, Canis lupus familiaris; conditions: dog, read-out: Drug recovery
[2] = Clearance in C57BL/6 mouse at 1 mg/kg, iv; type: ADME, organism-based; conditions: in vivo
[3] = target: T1, Protein cereblon/Protein Wiz (Homo sapiens, UniProt Q96SW2+O95785); test: Molecular glue activity at CRBN/HiBiT-tagged WIZ (unknown origin) expressed in HEK293T cells assessed as induction of WIZ degradation incubated for 18 hrs by Nano-Glo HiBiT-Lytic reagent based luminescence plate reader analysis relative to control; type: cell-based; parameters: concentration or dose not given beside the values
[4] = Half-life in C57BL/6 mouse at 1 mg/kg, iv; type: ADME, organism-based; conditions: in vivo
[5] = Intrinsic clearance in mouse liver microsomes; type: ADME, Microsome; conditions: read-out: CLH
[6] = target: T2, Protein cereblon/Sal-like protein 4 (Homo sapiens, UniProt Q96SW2+Q9UJQ4); test: Molecular glue activity at CRBN/HiBiT-tagged SALL4 (unknown origin) expressed in human GripTite 293 MSR cells assessed as induction of SALL4 degradation incubated for 20 hrs by Nano-Glo HiBiT-Lytic reagent based luminescence plate reader analysis; type: cell-based
Target sequence in this assay (Q96SW2 whole entry): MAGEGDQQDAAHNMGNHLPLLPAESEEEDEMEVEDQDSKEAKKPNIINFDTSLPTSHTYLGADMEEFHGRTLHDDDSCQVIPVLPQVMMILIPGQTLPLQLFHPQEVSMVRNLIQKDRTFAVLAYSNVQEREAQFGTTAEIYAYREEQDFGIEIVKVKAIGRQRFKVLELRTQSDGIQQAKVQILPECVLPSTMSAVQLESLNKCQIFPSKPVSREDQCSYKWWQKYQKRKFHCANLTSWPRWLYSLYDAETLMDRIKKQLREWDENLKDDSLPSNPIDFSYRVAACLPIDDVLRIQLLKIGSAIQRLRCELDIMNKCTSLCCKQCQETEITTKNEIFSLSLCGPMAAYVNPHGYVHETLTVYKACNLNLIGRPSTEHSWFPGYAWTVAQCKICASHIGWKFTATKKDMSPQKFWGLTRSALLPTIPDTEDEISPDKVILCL
Target sequence in this assay (Q9UJQ4 whole entry): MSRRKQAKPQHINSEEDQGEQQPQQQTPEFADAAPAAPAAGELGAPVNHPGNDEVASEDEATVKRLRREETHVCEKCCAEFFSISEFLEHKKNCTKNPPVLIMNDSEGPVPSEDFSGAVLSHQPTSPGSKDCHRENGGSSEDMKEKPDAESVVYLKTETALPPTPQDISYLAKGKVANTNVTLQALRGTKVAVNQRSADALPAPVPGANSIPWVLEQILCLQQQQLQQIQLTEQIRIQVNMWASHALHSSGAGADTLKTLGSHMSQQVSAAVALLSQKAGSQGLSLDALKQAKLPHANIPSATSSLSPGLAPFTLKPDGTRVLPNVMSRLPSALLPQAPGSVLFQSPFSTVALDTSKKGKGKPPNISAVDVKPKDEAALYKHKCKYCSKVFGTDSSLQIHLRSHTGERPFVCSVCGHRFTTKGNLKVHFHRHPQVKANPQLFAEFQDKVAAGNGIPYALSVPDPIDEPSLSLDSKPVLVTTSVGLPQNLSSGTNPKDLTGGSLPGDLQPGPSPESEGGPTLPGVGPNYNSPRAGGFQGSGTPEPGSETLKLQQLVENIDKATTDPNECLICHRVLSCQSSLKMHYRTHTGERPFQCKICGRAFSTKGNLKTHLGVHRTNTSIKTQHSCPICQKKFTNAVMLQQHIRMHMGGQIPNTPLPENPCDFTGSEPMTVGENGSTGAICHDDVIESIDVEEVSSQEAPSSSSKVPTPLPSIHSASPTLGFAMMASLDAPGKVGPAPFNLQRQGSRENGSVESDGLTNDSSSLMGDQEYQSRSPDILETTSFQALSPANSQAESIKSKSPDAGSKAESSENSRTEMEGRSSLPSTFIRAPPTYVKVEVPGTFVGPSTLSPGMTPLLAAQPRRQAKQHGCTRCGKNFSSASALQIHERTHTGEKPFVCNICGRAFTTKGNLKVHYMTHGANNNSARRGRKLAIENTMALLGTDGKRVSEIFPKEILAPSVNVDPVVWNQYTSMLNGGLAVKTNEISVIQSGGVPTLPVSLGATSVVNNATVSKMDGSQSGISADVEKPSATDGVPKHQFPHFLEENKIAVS

[7] = Toxicity in immunocompromised naive NBSGW mouse xenografted with human CD34 positive HSPC cells assessed as effect on body weight at 1 to 10 mg/kg, po administered once daily for 21 days; type: organism-based; conditions: in vivo, 504 h, dose 1-10 mg/kg, time 21 day
[8] = Volume of distribution at steady state in C57BL/6 mouse at 1 mg/kg, iv; type: ADME, organism-based; conditions: in vivo, read-out: Vdss
Cereblon/Ikaros [9] = target: T3, Cereblon/Ikaros (Homo sapiens, UniProt Q96SW2+Q13422); test: Molecular glue activity at CRBN/HiBiT-tagged IKZF1 (unknown origin) expressed in human GripTite 293 MSR cells assessed as induction of […] incubated for 20 hrs by Nano-Glo HiBiT-Lytic reagent based luminescence plate reader analysis; type: cell-based
T3 sequence (Q96SW2 whole entry): as the sequence (Q96SW2 whole entry) above
T3 sequence (Q13422 whole entry): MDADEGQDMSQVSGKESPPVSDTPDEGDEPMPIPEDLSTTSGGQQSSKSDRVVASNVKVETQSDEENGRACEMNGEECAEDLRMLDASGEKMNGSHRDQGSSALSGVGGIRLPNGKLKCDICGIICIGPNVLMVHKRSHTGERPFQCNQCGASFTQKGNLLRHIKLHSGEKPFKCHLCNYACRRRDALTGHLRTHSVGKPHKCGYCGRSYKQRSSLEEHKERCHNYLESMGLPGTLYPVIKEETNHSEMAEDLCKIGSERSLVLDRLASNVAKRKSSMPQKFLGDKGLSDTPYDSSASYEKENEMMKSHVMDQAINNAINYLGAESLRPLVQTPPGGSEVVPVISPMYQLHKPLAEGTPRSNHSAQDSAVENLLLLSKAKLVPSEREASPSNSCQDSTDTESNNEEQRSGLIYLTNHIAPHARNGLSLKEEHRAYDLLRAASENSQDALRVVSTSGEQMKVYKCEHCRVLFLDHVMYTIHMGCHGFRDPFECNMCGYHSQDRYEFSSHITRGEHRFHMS

[10] = target: T4, Protein cereblon/Eukaryotic peptide chain release factor GTP-binding subunit ERF3A (Homo sapiens, UniProt Q96SW2+P15170); test: Molecular glue activity at CRBN/HiBiT-tagged GSPT1 (unknown origin) expressed in human GripTite 293 MSR cells assessed as induction of GSPT1 degradation incubated for 20 hrs by Nano-Glo HiBiT-Lytic reagent based luminescence plate reader analysis; type: cell-based
Target sequence in this assay (Q96SW2 whole entry): as the sequence (Q96SW2 whole entry) above
Target sequence in this assay (P15170 whole entry): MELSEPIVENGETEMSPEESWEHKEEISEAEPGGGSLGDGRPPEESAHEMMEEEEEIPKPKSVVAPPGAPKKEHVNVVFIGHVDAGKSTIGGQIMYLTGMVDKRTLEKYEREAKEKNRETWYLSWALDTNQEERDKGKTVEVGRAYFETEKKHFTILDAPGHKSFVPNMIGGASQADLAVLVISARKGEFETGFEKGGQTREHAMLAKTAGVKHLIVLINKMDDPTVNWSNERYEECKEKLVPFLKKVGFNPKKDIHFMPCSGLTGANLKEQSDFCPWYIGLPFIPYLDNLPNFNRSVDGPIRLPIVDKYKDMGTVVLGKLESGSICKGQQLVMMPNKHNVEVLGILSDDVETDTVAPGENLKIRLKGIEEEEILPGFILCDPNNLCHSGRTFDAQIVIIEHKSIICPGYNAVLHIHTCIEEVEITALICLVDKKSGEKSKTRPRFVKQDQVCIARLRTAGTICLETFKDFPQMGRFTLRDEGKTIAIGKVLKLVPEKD

[11] = target: T2, Protein cereblon/Sal-like protein 4; test: Molecular glue activity at CRBN/HiBiT-tagged SALL4 (unknown origin) expressed in human GripTite 293 MSR cells assessed as induction of SALL4 degradation incubated for 20 hrs by Nano-Glo HiBiT-Lytic reagent based luminescence plate reader analysis relative to control; type: cell-based; parameters: concentration or dose not given beside the values
Target sequence in this assay (Q96SW2 whole entry, looked up): as the sequence (Q96SW2 whole entry) above
Target sequence in this assay (Q9UJQ4 whole entry, looked up): as the sequence (Q9UJQ4 whole entry) above

[12] = Intrinsic clearance in human liver microsomes; type: ADME, Microsome; conditions: read-out: CLH
[13] = Protein binding in mouse plasma; type: ADME, cell-free; conditions: read-out: PPB (converted)
[14] = AUClast in C57BL/6 mouse at 3 mg/kg, po; type: ADME, organism-based; conditions: in vivo
[15] = target: T1, Protein cereblon/Protein Wiz; test: Molecular glue activity at CRBN/WIZ in human CD34-positive derived primary erythroblast cells assessed as induction of WIZ degradation by measuring maximal efficacy measured after 24 hrs by flow cytometric analysis relative to control; type: cell-based
[16] = target: T1, Protein cereblon/Protein Wiz; test: In vivo molecular glue activity at CRBN/WIZ in immunocompromised naive NBSGW mouse xenografted with human CD34 positive HSPC cells assessed as induction of WIZ degradation in peripheral blood human C19-positive B cells by measuring maximal efficacy at 1 to 10 mg/kg, po administered once daily for 21 days by staining based analysis relative to control; type: functional, organism-based; conditions: dose 1-10 mg/kg, time 21.0 day
[17] = Apparent permeability across apical to basolateral side in low efflux MDCK cells at 10 uM incubated for 2 hrs by LC-MS analysis; type: ADME, cell-based, Canis lupus familiaris; conditions: dog
[18] = target: T1, Protein cereblon/Protein Wiz; test: In vivo molecular glue activity at CRBN/WIZ in immunocompromised naive NBSGW mouse xenografted with human CD34 positive HSPC cells assessed as fold increase in Hbf-positive cells in moCD45 negative hCD45negative CD71positive CD235A positive bone marrow cells at 1 to 10 mg/kg, po administered once daily for 21 days by staining based analysis; type: functional, organism-based; conditions: dose 1-10 mg/kg, time 21.0 day
[19] = target: T1, Protein cereblon/Protein Wiz; test: Molecular glue activity at CRBN/WIZ in human CD34-positive derived primary erythroblast cells assessed as increase in fetal hemoglobin positive cells in CD71+ CD235a+ subpopulation measured after 7 days by flow cytometric analysis relative to control; type: cell-based; conditions: time 7.0 day
[20] = Bioavailability last in C57BL/6 mouse; type: ADME, organism-based; conditions: in vivo
[21] = target: T4, Protein cereblon/Eukaryotic peptide chain release factor GTP-binding subunit ERF3A; test: Molecular glue activity at CRBN/HiBiT-tagged GSPT1 (unknown origin) expressed in human GripTite 293 MSR cells assessed as induction of GSPT1 degradation incubated for 20 hrs by Nano-Glo HiBiT-Lytic reagent based luminescence plate reader analysis relative to control; type: cell-based; parameters: concentration or dose not given beside the values
Cereblon/Ikaros [22] = target: T3, Cereblon/Ikaros; test: Molecular glue activity at CRBN/HiBiT-tagged IKZF1 (unknown origin) expressed in human GripTite 293 MSR cells assessed as induction of […] incubated for 20 hrs by Nano-Glo HiBiT-Lytic reagent based luminescence plate reader analysis relative to control; type: cell-based; parameters: concentration or dose not given beside the values
[23] = Protein binding in human plasma; type: ADME, cell-free; conditions: read-out: PPB (converted)
[24] = target: T1, Protein cereblon/Protein Wiz; test: In vivo molecular glue activity at CRBN/WIZ in immunocompromised naive NBSGW mouse xenografted with human CD34 positive HSPC cells assessed as induction of WIZ degradation in peripheral blood human […] B cells administered orally once daily for 21 days by staining based analysis; type: functional, organism-based; conditions: route po, time 21.0 day
[25] = Intrinsic clearance in rat liver microsomes; type: ADME, Microsome; conditions: read-out: CLH
[26] = Solubility of compound in potassium phosphate buffer at pH 6.8 incubated for 16 to 24 hrs by high-throughput Agilent Rapidfire-MS/MS analysis; type: physicochemical; conditions: time 16-24 hrs
[27] = Cmax in C57BL/6 mouse at 3 mg/kg, po; type: ADME, organism-based; conditions: in vivo
[28] = Protein binding in rat plasma; type: ADME, cell-free; conditions: read-out: PPB (converted)
[29] = Tmax in C57BL/6 mouse at 3 mg/kg, po or 1 mg/kg, iv; type: ADME, organism-based; conditions: in vivo
[30] = target: T1, Protein cereblon/Protein Wiz; test: Molecular glue activity at CRBN/HiBiT-tagged WIZ (unknown origin) expressed in HEK293T cells assessed as induction of WIZ degradation incubated for 18 hrs by Nano-Glo HiBiT-Lytic reagent based luminescence plate reader analysis; type: cell-based
[31] = target: T1, Protein cereblon/Protein Wiz; test: In vivo molecular glue activity at CRBN/WIZ in immunocompromised naive NBSGW mouse xenografted with human CD34 positive HSPC cells assessed as fold increase in Hbf-positive cells in moCD45 negative hCD45negative CD71positive CD235A positive bone marrow cells at 0.01 to 1 mg/kg, po administered once daily for 21 days by staining based analysis; type: functional, organism-based; conditions: dose 0.01-1 mg/kg, time 21.0 day
[32] = target: T1, Protein cereblon/Protein Wiz; test: In vivo molecular glue activity at CRBN/WIZ in immunocompromised naive NBSGW mouse xenografted with human CD34 positive HSPC cells assessed as induction of WIZ degradation in peripheral blood human C19-positive B cells by measuring maximal efficacy at 0.01 to 1 mg/kg, po administered once daily for 21 days by staining based analysis relative to control; type: functional, organism-based; conditions: dose 0.01-1 mg/kg, time 21.0 day
[33] = target: T1, Protein cereblon/Protein Wiz; test: Molecular glue activity at CRBN/WIZ in human CD34-positive derived primary erythroblast assessed as induction of WIZ degradation by flow cytometric analysis; type: cell-based
[34] = target: T1, Protein cereblon/Protein Wiz; test: Molecular glue activity at CRBN/WIZ in human CD34-positive derived primary erythroblast assessed as induction fetal hemoglobin by flow cytometric analysis; type: cell-based
[35] = target: Protein cereblon/Protein Wiz (Homo sapiens, UniProt O95785+Q96SW2); test: Molecular glue activity at CRBN/WIZ in human CD34-positive derived primary erythroblast cells assessed as increase in fetal hemoglobin positive cells in CD71+ CD235a+ subpopulation measured after 7 days by flow cytometric analysis; type: cell-based
[36] = target: T1, Protein cereblon/Protein Wiz; test: Molecular glue activity at CRBN/WIZ in human CD34-positive derived primary erythroblast cells assessed as induction of WIZ degradation measured after 24 hrs by flow cytometric analysis; type: cell-based
[37] = Toxicity in immunocompromised naive NBSGW mouse xenografted with human CD34 positive HSPC cells assessed as effect on body weight at 0.01 to 1 mg/kg, po administered once daily for 21 days; type: organism-based; conditions: in vivo, 504 h, dose 0.01-1 mg/kg, time 21 day

SMILES	recovery at 2 h, 10 µM [1] [%]	clearance [2] [L/h/kg]	Activity [3] [%]	half-life [4] [h]	microsomal CLint [5] [µL/min/mg]	DC50 [6] [µM]	Vd [8] [L/kg]	DC50 (Cereblon/Ikaros [9]) [µM]	DC50 [10] [µM]	Activity [11] [%]	microsomal CLint [12] [µL/min/mg]	fraction unbound [13]	AUC(0-t) [14] [nM·h]	Papp A→B at 2 h, 10 µM [17] [nm/s]	bioavailability [20] [%]	Activity [21] [%]	Activity (Cereblon/Ikaros [22]) [%]	fraction unbound [23]	microsomal CLint [25] [µL/min/mg]	DC50 [30] [µM]	also measured
CCN1CCCC[C@@H]1COc1ccc2c(c1)CN(C1CCC(=O)NC1=O)C2=O (stereo partly specified)	95	1.32	82	1.7	< 25	3.8	2.2	> 50	> 50	50	< 25	> 0.8	713	11	13	< 10	< 10	> 0.8	< 25		Activity [7]: Non-toxic; Emax [15]: 74%; Emax [16]: 63%; fold change (FC) [18]: 5; Activity [19]: 20%; Activity [24]: Dose-dependent-effect; solubility [26]: 450 µM (≈ 173 µg/mL); Cmax [27]: 0.157 µM; fraction unbound [28]: > 0.8; Tmax [29]: 2.3 h
CCN1C[C@H](Oc2ccc3c(c2)CN(C2CCC(=O)NC2=O)C3=O)CC[C@H]1C (stereo partly specified)			60			> 50		> 50	> 50	27						< 10	< 10			0.105	
CCN1C[C@H](C)C[C@@H](Oc2ccc3c(c2)CN(C2CCC(=O)NC2=O)C3=O)C1 (stereo in doubt; 10) [listing 1 of 2 here]			87							26						< 10	< 10				fold change (FC) [31]: 5; Emax [32]: 60%; Emax [15]: 84%; Activity [19]: 40%; Activity [24]: Dose-dependent-effect
CCN1C[C@@H](C)C[C@@H](Oc2ccc3c(c2)CN(C2CCC(=O)NC2=O)C3=O)C1 (mixture of isomers)			42			> 50		> 50	> 50	32						< 10	< 10			> 25	
CCN1CCC[C@@H](Oc2ccc3c(c2)CN(C2CCC(=O)NC2=O)C3=O)C1 (stereo partly specified)			77			> 50		> 50	> 50	28						< 10	< 10			0.026	
C[C@@H](Oc1ccc2c(c1)CN(C1CCC(=O)NC1=O)C2=O)[C@H]1CCCCN1C (stereo partly specified)	66	1.68	93	1.9	< 25		2.9			58	< 25	> 0.8	115	3.7	2.7	< 11	< 11	0.69	< 25		Activity [33]: Active; Activity [34]: Active; solubility [26]: 640 µM (≈ 247 µg/mL); Cmax [27]: 0.024 µM; fraction unbound [28]: 0.58; Tmax [29]: 3 h
CCN1C[C@H](C)C[C@@H](Oc2ccc3c(c2)CN(C2CCC(=O)NC2=O)C3=O)C1 (stereo in doubt; 10) [listing 2 of 2 here]	84	1.74		2.2	< 10		2.8				< 10	> 0.8	1120	5	23			0.76	< 10	0.003	EC50 [35]: 0.04 µM; DC50 [36]: 0.002 µM; Activity [37]: Non-toxic; solubility [26]: 380 µM (≈ 146 µg/mL); Cmax [27]: 0.224 µM; fraction unbound [28]: > 0.8; Tmax [29]: 1.7 h
CCN1CCC2(CC2)[C@@H](Oc2ccc3c(c2)CN(C2CCC(=O)NC2=O)C3=O)C1 (stereo partly specified)			82			> 50		> 50	> 50	11						< 10	< 10			0.008	
CCN1CCC[C@H](Oc2ccc3c(c2)CN(C2CCC(=O)NC2=O)C3=O)C1 (stereo partly specified)			12			> 50		> 50	> 50	27						< 10	< 10			> 25	
CCN1C[C@H](C)C[C@@H](Oc2ccc3c(c2)CN(C2CCC(=O)NC2=O)C3=O)C1 (mixture of isomers) [listing 1 of 2 here]						> 50		> 50	> 50											0.013	
CCN1C[C@H](C)C[C@@H](Oc2ccc3c(c2)CN(C2CCC(=O)NC2=O)C3=O)C1 (mixture of isomers) [listing 2 of 2 here]			78							15						< 10	< 10				
CCN1C[C@H](Oc2ccc3c(c2)CN(C2CCC(=O)NC2=O)C3=O)CC[C@@H]1C (stereo partly specified)	75	1.74	88	3.2	< 25	> 50	4.4	> 50	> 50	32	< 25	0.77	377	3	8.5	< 10	10	0.72	< 25	0.003	EC50 [35]: 0.078 µM; Emax [15]: 84%; Activity [19]: 36%; DC50 [36]: 0.003 µM; solubility [26]: 480 µM (≈ 185 µg/mL); Cmax [27]: 0.118 µM; fraction unbound [28]: 0.71; Tmax [29]: 1 h
